Entries after “also recorded” stand apart in the source; their conditions may differ. Structures can show the parent of a compound that is named as a salt.
Key:
[1] = test system: Group I or Group III receptors; conditions: sub-mM concentrations; cited from earlier work
mGluR2 = mGluR2 (Homo sapiens, UniProt Q14416); conditions: read-out: IC50 against mGluR2; cited from earlier work
mGluR3 = mGluR3 (Homo sapiens, UniProt Q14832); conditions: read-out: IC50 against mGluR3; cited from earlier work
[2] = test system: human neural stem cells (hNSCs); assay: Astrocyte differentiation of hNSCs (GFAP staining); format: cell-based; conditions: for effect on astrocyte differentiation (in words): GFAP; for EC50: Homo sapiens, Neural stem cell
Procedure: Experiments were carried out as described in Example 1, except the positive control for astrocyte differentiation contained mitogen-free test media with a positive control, and cells were stained with GFAP antibody.
Experiments were carried out as described in Example 2, except the positive control for astrocyte differentiation contained mitogen-free test media with a different positive control.
(§1) Human neural stem cells (hNSCs) were isolated and grown in monolayer culture, plated, treated with varying concentrations of buspirone in the presence or absence of the melatonin agonist melatonin, and stained with TUJ-1 antibody for the detection of neuronal differentiation or GFAP antibody for the detection of astrocyte differentiation, as described above. Mitogen-free test media with a positive control for neuronal differentiation was used along with basal media without growth factors as a negative control.

[3] = test system: human neural stem cells (hNSCs); assay: Neuronal differentiation of human neural stem cells (TUJ-1 staining); format: cell-based; conditions: for EC50: agent alone, data as % of neuronal positive control, basal media subtracted; for EC50 / effect on neuronal differentiation (in words): hNSC; for effect on neuronal differentiation (in words): TUJ-1
Source text: Mitogen-free test media with a positive control was used for neuronal differentiation, and basal media without growth factors served as a negative control.
Mitogen-free test media with a positive control for neuronal differentiation was used, and basal media without growth factors served as a negative control.
as §1
(§2) Human neural stem cells (hNSCs) were isolated and grown in monolayer culture, plated, treated with varying concentrations of a 5-HT3 antagonist and stained with TUJ-1 antibody, as described above. Mitogen-free test media with a positive control for neuronal differentiation was used along with basal media without growth factors as a negative control.
as §2, with “5-HT4 agonist” for “5-HT3 antagonist”
The presence of synergy was determined by use of a combination index (CI). […] The CI is a quantitative measure of the nature of drug interactions, comparing the EC50's of two compounds, when each is assayed alone, to the EC50 of each compound when assayed in combination. The combination index (CI) is equal to the following formula: […]
where C1 and C2 are the concentrations of a first and a second compound, respectively, resulting in 50% activity in neuronal differentiation when assayed in combination; and IC1 and IC2 are the concentrations of each compound resulting in 50% activity when assayed independently.

[4] = test system: KA, AMPA, and NMDA iGlu receptors; conditions: cited from earlier work
human mGlu2 = human mGlu2 (Homo sapiens, UniProt Q14416); conditions: in vitro; low nanomolar range; read-out: EC50 against human mGlu2 receptors; cited from earlier work
human mGlu3 = human mGlu3 (Homo sapiens, UniProt Q14832); conditions: in vitro; low nanomolar range; read-out: EC50 against human mGlu3 receptors; cited from earlier work
[5] = test system: human neural stem cells (hNSC); assay: Immunohistochemistry with neuronal and astrocyte markers (TUJ-1, GFAP, Hoechst 33342); format: cell-based; conditions: incubated with 30 μM
Procedure: Immunohistochemistry was carried out as described above using TUJ-1 as a neuronal cell marker and GFAP as an astrocyte marker. The results are shown in FIG. […] Immunohistochemistry was carried out as described in Example 3.

Male F344 rats [6] = assay: Novel Object Recognition (NOR) cognition assay; format: in vivo, rat; conditions: fluoxetine 5 and 10 mg/kg p.o., 1x per day for 28 days
Source text: The apparatus consisted of an open field (45×45×50 cm high) made of polycarbonate. Triplicate copies were used of the objects to be discriminated. Care was taken to ensure that the pair of objects tested were made from the same material so that they could not be distinguished readily by olfactory cues although they had very different appearances.
Each test session consisted of two phases. In the initial familiarization phase, two identical objects (A1 and A2) were placed in the far corners of the box arena. A rat was then placed in the middle of the arena and allowed 15 minutes to explore both objects. Exploration of an object was defined as directing the nose to the object at a distance of less than 2 cm and/or touching it with the nose. After a delay of 48-hours the rat was re-introduced to the arena (“test phase”). The box now contained a third identical copy of the familiar object (A3) and a new object (B). These were placed in the same locations as the sample stimuli, whereby the position (left or right) of the novel object in the test phase was balanced between rats. For half the rats, object A was the sample and object B was the novel alternative. The test phase was 15 minutes in duration, with the first 30 seconds of object interaction used to determine preference scores. Any animal with less than 15 seconds of object exploration were excluded from analysis.

Male F344 rats [7] = assay: Novelty suppressed feeding (NSF) depression assay; format: in vivo, rat; conditions: 1x per day for 21 days
Procedure: Twenty-four hours prior to behavioral testing, all food is removed from the home cage. At the time of testing a single pellet is placed in the center of a novel arena. Animals are placed in the corner of the arena and latency to eat the pellet is recorded. […] Animals receive compound daily for 21 days and testing is performed on day 21. A decreased latency to eat the food pellet is indicative of both neurogenesis and antidepressant activity.
Twenty-four hours prior to behavioral testing, all food is removed from the home cage. At the time of testing a single pellet is placed in the center of a novel arena. Animals are placed in the corner of the arena and the latency (in time) to eat the pellet is recorded. […] Animals receive compound daily for 21 days and testing is performed on day 21. A decreased latency to eat the food pellet is indicative of both neurogenesis and antidepressant activity.

[8] = test system: granule cell layer of the dentate gyrus; assay: In vivo neurogenesis (BrdU positive cell counts); set-up: species or system rat; conditions: 0.5 mg/kg buspirone, 3.0 mg/kg melatonin or both, i.p., 1x per day for 28 days
Procedure: BrdU was administered once daily between days 9 and 14 (100 mg/kg/day, i.p., n=12 per dose group). […] Data are presented as percent change in BrdU positive cells per cubic mm dentate gyrus.

[9] = agent alone, hNSC, % of astrocyte positive control, basal media subtracted

Chain of human mGlu2 (Q14416 19-872): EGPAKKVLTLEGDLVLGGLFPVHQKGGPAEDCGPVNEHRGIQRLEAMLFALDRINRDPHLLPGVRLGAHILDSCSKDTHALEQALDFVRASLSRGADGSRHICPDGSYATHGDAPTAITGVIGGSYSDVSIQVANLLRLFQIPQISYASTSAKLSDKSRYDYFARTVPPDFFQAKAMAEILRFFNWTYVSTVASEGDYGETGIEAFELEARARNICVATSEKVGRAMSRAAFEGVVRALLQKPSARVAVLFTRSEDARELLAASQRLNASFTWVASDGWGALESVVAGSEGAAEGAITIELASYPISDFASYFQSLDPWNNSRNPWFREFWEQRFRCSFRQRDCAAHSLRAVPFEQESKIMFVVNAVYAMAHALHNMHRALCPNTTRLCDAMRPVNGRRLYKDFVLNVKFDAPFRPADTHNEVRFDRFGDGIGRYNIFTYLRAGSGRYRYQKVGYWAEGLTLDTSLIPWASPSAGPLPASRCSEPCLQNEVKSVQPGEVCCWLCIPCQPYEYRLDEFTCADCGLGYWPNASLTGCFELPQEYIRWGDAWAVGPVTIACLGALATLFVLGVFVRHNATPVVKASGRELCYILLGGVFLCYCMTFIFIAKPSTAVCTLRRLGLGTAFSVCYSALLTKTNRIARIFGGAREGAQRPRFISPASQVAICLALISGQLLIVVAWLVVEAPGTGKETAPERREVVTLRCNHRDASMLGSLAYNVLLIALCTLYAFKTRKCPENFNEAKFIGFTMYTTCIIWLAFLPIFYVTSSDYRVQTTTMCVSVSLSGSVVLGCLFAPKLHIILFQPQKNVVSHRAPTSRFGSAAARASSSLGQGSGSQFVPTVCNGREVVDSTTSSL
Chain of mGluR2 (Q14416 19-872): as above
Chain of mGluR3 (Q14832 23-879): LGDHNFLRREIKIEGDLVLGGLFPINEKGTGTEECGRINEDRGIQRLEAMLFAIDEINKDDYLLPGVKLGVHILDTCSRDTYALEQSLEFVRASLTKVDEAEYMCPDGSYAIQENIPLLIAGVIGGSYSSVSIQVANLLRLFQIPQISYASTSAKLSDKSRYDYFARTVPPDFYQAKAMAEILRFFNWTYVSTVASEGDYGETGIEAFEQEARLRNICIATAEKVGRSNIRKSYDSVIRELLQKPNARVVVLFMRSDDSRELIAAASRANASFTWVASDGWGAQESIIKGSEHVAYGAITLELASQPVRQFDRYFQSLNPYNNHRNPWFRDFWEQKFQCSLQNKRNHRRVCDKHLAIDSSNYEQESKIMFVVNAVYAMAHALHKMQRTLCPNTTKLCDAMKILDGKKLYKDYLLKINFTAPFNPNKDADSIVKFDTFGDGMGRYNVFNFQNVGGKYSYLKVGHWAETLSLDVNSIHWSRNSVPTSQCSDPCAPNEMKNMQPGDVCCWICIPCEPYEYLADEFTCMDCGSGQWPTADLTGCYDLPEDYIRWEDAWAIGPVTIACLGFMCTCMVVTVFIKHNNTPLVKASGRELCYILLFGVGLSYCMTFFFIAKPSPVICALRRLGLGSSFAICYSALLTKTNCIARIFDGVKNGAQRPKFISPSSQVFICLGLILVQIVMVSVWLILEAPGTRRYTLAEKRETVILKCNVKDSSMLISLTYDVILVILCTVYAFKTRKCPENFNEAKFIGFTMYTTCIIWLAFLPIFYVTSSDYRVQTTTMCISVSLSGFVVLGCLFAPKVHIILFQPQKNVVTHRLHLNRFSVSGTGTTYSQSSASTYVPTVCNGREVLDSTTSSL
Chain of human mGlu3 (Q14832 23-879): as above

NC1(C(=O)O)CCc2cc(P(=O)(O)O)ccc21 (racemic) [APICA, (RS)-1-amino-5-phosphonoindan-1-carboxylic acid]
activity against Group I or Group III receptors [1]: no appreciable activity | IC50 (mGluR2): ~30 µM | IC50 (mGluR3): ~30 µM

N[C@@H](Cc1c[nH]c2ccc(O)cc12)C(=O)O [5-HTP, 5-hydroxytryptophan]
EC50, astrocyte differentiation [2, 9]: undeterminable | effect on astrocyte differentiation (in words) ([2]; hNSC): no significant increase in astrocyte differentiation above basal media values | EC50 ([3]; Homo sapiens, Neural stem cell): 12 µM | effect on neuronal differentiation (in words) [3]: weakly promoted neuronal differentiation

N[C@](CC1c2ccccc2Oc2ccccc21)(C(=O)O)[C@H]1C[C@@H]1C(=O)O [LY341495, (2S)-2-amino-2-(1S,2S-2-carboxycycloprop-1-yl)-3-(xanth-9-yl) propanoic acid]
activity against KA, AMPA, and NMDA iGlu receptors [4]: substantially inactive

N[C@@]1(C(=O)O)CO[C@H]2[C@H](C(=O)O)[C@H]21 [LY379268, (−)-2-oxa-4-aminobicyclohexane-4,6-dicarboxylic acid]
EC50 (human mGlu2): < 0.01 µM | EC50 (human mGlu3): < 0.01 µM

COc1ccc2cccc(CCNC(C)=O)c2c1 [agomelatine]
EC50 ([3]; Homo sapiens, Neural stem cell): 8.7 µM | effect on neuronal differentiation (in words) [3]: promotes differentiation of neural stem cells into neurons

CN1C(=O)COc2c(C(=O)NC3CN4CCC3CC4)cc(Cl)cc21 (centres unmarked) [azasetron]
lineage of hNSC monolayer in immunofluorescent image [5]: primarily of a neuronal lineage | EC50 [2, 9]: > 31.6 µM | effect on astrocyte differentiation (in words) ([2]; hNSC): did not show a significant effect on astrocyte differentiation | maximum astrocyte differentiation ([2]; percent of positive control, agent alone or in combination): 33% | EC50 [3]: 5.8 µM | effect on neuronal differentiation (in words) [3]: promote differentiation of neural stem cells into neurons | effect on neuronal differentiation (in words) ([3]; listed as Azasetron): significantly promoted neuronal differentiation

NCC(CC(=O)O)c1ccc(Cl)cc1 (centres unmarked) [baclofen]
EC50 [2, 9]: > 31.6 µM | EC50 ([3]; Homo sapiens, Neural stem cell): 3.9 µM

C[C@H](CS)C(=O)N1CCC[C@H]1C(=O)O [captopril]
EC50 ([3]; Homo sapiens, Neural stem cell): 5.4 µM

NC(=O)N1c2ccccc2C=Cc2ccccc21 [carbemazepine]
EC50 ([3]; Homo sapiens, Neural stem cell): 15.7 µM

COc1cc(N)c(Cl)cc1C(=O)NC1CCN(CCCOc2ccc(F)cc2)CC1OC (centres unmarked) [cisapride]
EC50 ([3]; Homo sapiens, Neural stem cell): 7.9 µM | effect on neuronal differentiation (in words) [3]: promote differentiation of neural stem cells into neurons

NCCc1ccc(O)c(O)c1 [dopamine, 4-(2-aminoethyl)benzene-1,2-diol]
neuronal differentiation, dopamine dose response ([3]; dopamine alone or with 10 μM or 30 μM 5-HTP): did not significantly enhance neuronal differentiation

CNCCC(Oc1ccc(C(F)(F)F)cc1)c1ccccc1 (centres unmarked) [fluoxetine]
preference for the novel object (visits, time spent) (Male F344 rats [6]): increased both the number of visits to, and the amount of time spent with, the novel object; also recorded: dose dependent increase in preference for the novel object | latency to eat the food pellet (Male F344 rats [7]; fluoxetine 10.0 mg/kg p.o.): reduced the latency to eat the food pellet

Nc1nc2ncc(CNc3ccc(C(=O)N[C@@H](CCC(=O)O)C(=O)O)cc3)nc2c(=O)[nH]1 [folic acid]
EC50 ([3]; Homo sapiens, Neural stem cell): 4.5 µM

NCC1(CC(=O)O)CCCCC1 [gabapentin]
EC50 ([3]; Homo sapiens, Neural stem cell): 11.5 µM

CN1C2CCCC1CC(NC(=O)c1nn(C)c3ccccc13)C2 (centres unmarked) [granisetron]
effect on neuronal differentiation (in words) [3]: promote differentiation of neural stem cells into neurons

CC(C)C(=O)c1c(C(C)C)nn2ccccc12 [ibudilast]
EC50 ([3]; Homo sapiens, Neural stem cell): 0.72 µM

COc1ccc2[nH]cc(CCNC(C)=O)c2c1 [melatonin]
BrdU positive cells per cubic mm dentate gyrus (percent change) [8]: did not significantly change the number of BrdU positive cells | latency to eat the food pellet (percent baseline) (Male F344 rats [7]; 0.5 mg/kg buspirone, 3.0 mg/kg melatonin or both, i.p.): did not significantly reduce the latency to eat the food pellet | EC50 [2, 9]: > 31.6 µM | EC50 ([3]; Homo sapiens, Neural stem cell): > 31.6 µM

COC(=O)C(c1ccccc1)C1CCCCN1 (centres unmarked) [methylphenidate]
EC50 ([3]; Homo sapiens, Neural stem cell): 2.2 µM

NC(=O)C[S+]([O-])C(c1ccccc1)c1ccccc1 (centres unmarked) [modafinil]
EC50 ([2]; agent alone, hNSC): > 31.6 µM | EC50 ([3]; Homo sapiens, Neural stem cell): 12.5 µM

CCOc1cc(N)c(Cl)cc1C(=O)NCC1CN(Cc2ccc(F)cc2)CCO1 (centres unmarked) [mosapride citrate]
lineage of hNSC monolayer in immunofluorescent image [5]: primarily of a neuronal lineage | EC50 [2, 9]: > 31.6 µM | effect on astrocyte differentiation (in words) ([2]; hNSC): did not show a significant effect on astrocyte differentiation | EC50 ([3]; Homo sapiens, Neural stem cell): ~15.8 µM | EC50 [3]: 10.4 µM | effect on neuronal differentiation (in words) ([3]; listed as Mosapride citrate): significantly promoted neuronal differentiation | effect on neuronal differentiation (in words) ([3]; listed as mosapride): promote differentiation of neural stem cells into neurons

O=C1CC[C@@]2(O)[C@H]3Cc4ccc(O)c5c4[C@@]2(CCN3CC2CC2)[C@H]1O5 [naltrexone]
EC50 ([3]; Homo sapiens, Neural stem cell): 0.39 µM

Cc1nccn1CC1CCc2c(c3ccccc3n2C)C1=O (centres unmarked) [ondansetron]
EC50 ([3]; Homo sapiens, Neural stem cell): 23.9 µM | effect on neuronal differentiation (in words) [3]: promote differentiation of neural stem cells into neurons

CNS(=O)(=O)Cc1ccc2[nH]cc(CCN(C)C)c2c1 [sumatriptan]
EC50 ([3]; Homo sapiens, Neural stem cell): 14.9 µM | effect on neuronal differentiation (in words) [3]: promotes differentiation of neural stem cells into neurons

O=C1[C@@H]2[C@H]3CC[C@H](C3)[C@@H]2C(=O)N1CCCCN1CCN(c2ncccn2)CC1 [tandospirone]
EC50 [2, 9]: 8.69 µM | EC50 ([3]; Homo sapiens, Neural stem cell): 12.1 µM

Reference: patent publication US7678808B2, “5 HT receptor mediated neurogenesis” (BrainCells, Inc., priority 2006, dated 2010)
